Measurements as given in PMC5353710, “Structural insights into the γ-lactamase activity and substrate enantioselectivity of an isochorismatase-like hydrolase from Microbacterium hydrocarbonoxydans” (Scientific Reports, 2017).

Tests used:
MhIHL (Mh33H4-5540) [1] = molecular target: T1, MhIHL (Mh33H4-5540) (Microbacterium hydrocarbonoxydans, UniProt A0A0K0XHU0, C111A); conditions: inactive variant; crystal soaked in 250 mM ligand for 1.5 h; active site
MhIHL (Mh33H4-5540) [2] = molecular target: T1, MhIHL (Mh33H4-5540); conditions: inactive variant; crystal soaked in 500 mM ligand for 10 min; active site

Compound	X-ray crystal structure, 1.99 Å (MhIHL (Mh33H4-5540) [1])	X-ray crystal structure, 1.79 Å (MhIHL (Mh33H4-5540) [2])
O=C1N[C@H]2C=C[C@@H]1C2 [(−)-γ-lactam, 2-Azabicyclo[2.2.1]hept-5-en-3-one]	The final crystals of MhIHL–(−)-γ-lactam complex were obtained by soaking the crystal	
O=C1N[C@@H]2C=C[C@H]1C2 [(+)-γ-lactam, 2-Azabicyclo[2.2.1]hept-5-en-3-one]		The final MhIHL–(+)-γ-lactam complex crystals were obtained by soaking the crystal
